Assay results as given in patent publication US8017315B2, “Mitochondrial localization of MUC1” (Dana Farber Cancer Institute, Inc., priority 2005, dated 2011).
Values belong to the molecule of their own block, whether it stands above or below them. Ends that are not written are not given here.

Tests used:
c-Src = c-Src (Homo sapiens, UniProt P12931); assay: c-Src activation (autophosphorylation), anti-c-Src immunoprecipitation and immunoblot; format: cell-based; settings: HCT116/MUC1 cells
Description: (§1) Cell culture. Human HCT116/vector, HCT116/MUC1, HCT116/MUC1(Y46F) (Ren et al. (2004) Cancer Cell 5:163-175) and HCT116/MUC1-CD (Huang et al. (2003) Cancer Biol. Ther. 2:702-706) cells were cultured in Dulbecco's Modified Eagle Medium/F12 with 10% heat-inactivated fetal bovine serum (HI-FBS), 100 units/ml penicillin, […], and 2 mM L-glutamine. Human HeLa cervical carcinoma, 293 embryonic kidney and MCF-7 breast cancer cells were grown in Dulbecco's Modified Eagle Medium containing 10% HI-FBS, antibiotics and L-glutamine. Human ZR-75-1 breast cancer cells were cultured in RPMI1640 medium containing 10% HI-FBS, antibiotics and L-glutamine. Cells were grown to 60% confluence and then maintained overnight in medium with 0.1% serum before treatment with heregulin (HRG; 20 ng/ml; Calbiochem-Novabiochem, LaJolla, Calif.).
(§2) Immunoprecipitation and immunoblotting. […] Reactivity was detected with horseradish peroxidase-conjugated secondary antibodies and chemiluminescence (PerkinElmer Life Sciences, Boston, Mass.). Intensity of the signals was determined by densitometric scanning. Statistical significance was determined by the Student's t-test.

[1] = tested on: binding of MUC1 and HSP90; assay: MUC1-HSP90 co-immunoprecipitation and immunoblot in cells; format: cell-based, Human
Description: Cell culture. […] Human ZR-75-1 breast cancer cells were cultured in RPMI1640 medium containing 10% HI-FBS, antibiotics and L-glutamine. Cells were grown to 60% confluence and then maintained overnight in medium with 0.1% serum before treatment with heregulin (HRG; 20 ng/ml; Calbiochem-Novabiochem, LaJolla, Calif.).
Immunoprecipitation and immunoblotting. […] Lysates not subjected to immunoprecipitation were immunoblotted with anti-MUC1-C, anti-HSP60 (Stressgen Biotechnologies, Victoria, BC, Canada), anti-PDGFR (Santa Cruz Biotechnology), anti-BAP31 (Abcam, Cambridge, Mass.), anti-PCNA (Calbiochem-Novabiochem), anti-IkBa (Santa Cruz Biotechnology), anti-calreticulin (Stressgen Biotechnologies), anti-Tom20 (BD Biosciences), anti-Tim23 (BD Biosciences), anti-Tim44 (BD Biosciences) or anti-β-actin (Sigma-Aldrich). Reactivity was detected with horseradish peroxidase-conjugated secondary antibodies and chemiluminescence (PerkinElmer Life Sciences, Boston, Mass.). Intensity of the signals was determined by densitometric scanning. Statistical significance was determined by the Student's t-test.
Subcellular fractionation. […] SM buffer ([…]) was added to one aliquot, and hypotonic buffer (10 mM MOPS-KOH, pH 7.2; […]) was added to the other aliquot. The samples were incubated for 15 minutes on ice and then left untreated or digested with […] trypsin (Sigma-Aldrich) for 15 minutes at 4° C. In other experiments, purified mitochondria in suspension buffer (5 mM HEPES, pH 7.4, 210 mM mannitol, 70 mM sucrose, 100 mM KCl, and 1 mM EGTA) were treated with 0.5% or 1% digitonin (Sigma-Aldrich) for 15 minutes at 4° C. Alternatively, the mitochondria were incubated with 0.5% digitonin for 1 minute at 4° C., diluted with suspension buffer, and then treated with […] trypsin for 15 minutes at 4° C.

[2] = tested on: localization of MUC1-C to mitochondria; assay: Immunoblot of purified mitochondria for MUC1 targeting; format: cell-based, Human; settings: HCT116/MUC1 cells
Description: as §1
as §2, with “t-test. […]” for “t-test.”

[3] = biological target: T1, purified recombinant human HSP70 (Homo sapiens, UniProt P0DMV8); assay: GST pull-down binding study with recombinant HSP70; settings: GST fusion proteins on glutathione beads, 1 hour at 4° C., no c-Src
T1 construct: purchased Stressgen Biotechnologies
T1 sequence (P0DMV8 2-641 limits assumed): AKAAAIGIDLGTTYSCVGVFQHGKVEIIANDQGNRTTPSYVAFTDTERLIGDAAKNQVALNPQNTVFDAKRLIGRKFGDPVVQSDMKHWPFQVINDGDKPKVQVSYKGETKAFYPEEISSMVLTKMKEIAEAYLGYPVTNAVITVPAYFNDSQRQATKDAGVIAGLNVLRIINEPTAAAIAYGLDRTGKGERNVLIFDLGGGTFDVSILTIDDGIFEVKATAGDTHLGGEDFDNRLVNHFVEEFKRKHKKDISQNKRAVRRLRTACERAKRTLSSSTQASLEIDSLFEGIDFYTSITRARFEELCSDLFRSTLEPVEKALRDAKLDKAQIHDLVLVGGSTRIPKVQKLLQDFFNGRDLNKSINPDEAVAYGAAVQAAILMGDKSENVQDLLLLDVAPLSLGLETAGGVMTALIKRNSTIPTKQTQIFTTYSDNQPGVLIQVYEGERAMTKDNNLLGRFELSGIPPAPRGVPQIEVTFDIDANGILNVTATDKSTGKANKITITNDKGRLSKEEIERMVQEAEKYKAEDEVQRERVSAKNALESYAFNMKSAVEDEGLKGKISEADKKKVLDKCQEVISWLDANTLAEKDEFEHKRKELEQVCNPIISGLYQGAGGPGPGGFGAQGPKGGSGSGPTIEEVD
Description: (§3) Binding Studies. Sequences encoding MUC1-CD, MUC1-CD(1-45), or MUC1-CD(46-72) were amplified by PCR and cloned into the pGEX-4T vector (Amersham Biosciences, Piscataway, N.J.). Purified GST-MUC1-CD fusion proteins bound to glutathione beads were incubated with purified recombinant human HSP70 or HSP90 (Stressgen Biotechnologies) for 1 hour at 4° C. In other experiments, the purified GST fusion proteins bound to glutathione beads were incubated with or without 50 ng c-Src (Upstate Biotechnology) in the presence of […] for 20 minutes at 30° C. HSP90 was then added for 1 hour at 4° C. Precipitated proteins were subjected to immunoblot analysis with anti-HSP70 or anti-HSP90.

[4] = tested on: purified recombinant human HSP90; assay: GST pull-down binding study with recombinant HSP90; settings: for binding to HSP90 after incubation with c-Src and ATP: GST fusion proteins incubated with c-Src and ATP 20 minutes at 30° C., then HSP90 1 hour at 4° C.
Description: as §3

[5] = biological target: HSP70 (endogenous, in lysates of human cells) (human) (UniProt P0DMV8); assay: anti-MUC1-N immunoprecipitation from HCT116/MUC1 lysates, immunoblot, scanning densitometry
[6] = tested on: binding of MUC1 and HSP70; assay: MUC1-HSP70 co-immunoprecipitation and immunoblot in cells; format: cell-based, Human; settings: HRG 10 minutes
Description: as §1
Immunoprecipitation and immunoblotting. Equal amounts of protein from cell lysates were incubated with anti-MUC1-N (antibody DF3) (Kufe et al. (1984) Hybridoma 3:223-232), anti-Flag (Sigma-Aldrich, St. Louis, Mo.), anti-c-Src (Upstate Biotechnology, Lake Placid, N.Y.), anti-HSP90 (BD Biosciences PharMingen, San Diego, Calif.) or normal mouse IgG (Santa Cruz Biotechnology, Santa Cruz, Calif.) for 2 hours at 4° C. Immune complexes were prepared as described (Li et al. (1998) Mol. Cell. Biol. 18:7216-7224) and subjected to immunoblot analysis with anti-HSP70, anti-HSP90, anti-MUC1-N, anti-MUC1-C (Ab5; Neomarkers, Fremont, Calif.), anti-phospho-c-Src(Tyr416) (Cell Signaling Technology, Beverly, Mass.) or anti-c-Src. […] Reactivity was detected with horseradish peroxidase-conjugated secondary antibodies and chemiluminescence (PerkinElmer Life Sciences, Boston, Mass.). Intensity of the signals was determined by densitometric scanning. Statistical significance was determined by the Student's t-test.

cytosolic MUC1-C levels = assay: Immunoblot of cytosolic fractions for MUC1-C; format: cell-based, Human; settings: cytosolic fraction of HCT116/MUC1 cells; HRG 10 minutes
Description: as §1
as §2, with “t-test. […]” for “t-test.”

[7] = biological target: T2, purified recombinant human HSP90 (human, UniProt P08238 1-724, limits assumed); assay: GST pull-down with recombinant HSP90 after incubation with c-Src and ATP, anti-HSP90 immunoblot
T2 construct: Bought (Stressgen Biotechnologies); also called recombinant HSP90
T2 sequence (P08238 whole entry T147R/R177M): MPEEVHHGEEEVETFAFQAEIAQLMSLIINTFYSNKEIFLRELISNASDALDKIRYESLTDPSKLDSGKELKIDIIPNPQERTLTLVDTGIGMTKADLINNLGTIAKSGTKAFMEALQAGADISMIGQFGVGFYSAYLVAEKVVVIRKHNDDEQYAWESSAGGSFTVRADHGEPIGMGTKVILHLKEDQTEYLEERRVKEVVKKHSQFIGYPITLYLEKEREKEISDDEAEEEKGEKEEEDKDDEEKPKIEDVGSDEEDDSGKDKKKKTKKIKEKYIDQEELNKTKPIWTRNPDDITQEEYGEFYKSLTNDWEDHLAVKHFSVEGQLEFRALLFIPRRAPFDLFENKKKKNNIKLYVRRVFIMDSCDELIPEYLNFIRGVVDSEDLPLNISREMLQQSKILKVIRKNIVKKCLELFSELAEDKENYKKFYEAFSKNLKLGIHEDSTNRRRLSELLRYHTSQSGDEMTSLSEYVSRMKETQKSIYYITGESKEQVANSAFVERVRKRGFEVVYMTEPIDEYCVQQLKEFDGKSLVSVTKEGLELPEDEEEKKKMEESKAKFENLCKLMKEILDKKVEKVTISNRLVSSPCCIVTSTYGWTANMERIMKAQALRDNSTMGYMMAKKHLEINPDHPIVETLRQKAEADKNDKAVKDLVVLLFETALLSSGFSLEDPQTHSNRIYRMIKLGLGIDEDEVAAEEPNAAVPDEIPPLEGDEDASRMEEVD

Molecule: CC(C)(C)n1nc(-c2ccc(Cl)cc2)c2c(N)ncnc21 [PP2, reference compound]
HRG-induced c-Src activation (c-Src; PP2 10 μM for 1 hour, then HRG 20 ng/ml 10 minutes): blocked HRG-induced c-Src activation
HRG-induced binding of MUC1 and HSP90 in presence of inhibitor ([1]; HCT116/MUC1 cells, PP2 10 μM or GA 1 μM for 1 hour, then HRG, anti-MUC1-N precipitates): attenuated this response
HRG-induced targeting of MUC1 to mitochondria in presence of inhibitor ([2]; PP2 or GA for 1 hour, then HRG): attenuated

Molecule: MUC1-CD: GST fusion of the 72 amino acid MUC1 cytoplasmic domain (SEQ ID NO:1)
binding to HSP70 [3]: binds to HSP70
binding to HSP90 ([4]; GST fusion protein on glutathione beads, 1 hour at 4° C., no c-Src): but not HSP90
binding to HSP90 after incubation with c-Src and ATP [4]: c-Src induced binding of MUC1-CD to HSP90

Molecule: MUC1 (human, full length, expressed in cells) (from UniProt P15941 24-1255)
percent of the total HSP70 pool associated with MUC1 [5]: 0.6%

Molecule: MUC1-CD(46-72): GST fusion of amino acids 46-72 (YEKVSAGNGGSSLSYTNPAVAATSANL; SEQ ID NO:2) of the human MUC1 CD (not fully specified; also: fused to GST)
binding to HSP70 [3]: binding to HSP70 was detected
binding to HSP90 after incubation with c-Src and ATP [4]: no detectable binding of HSP90

B1: GST-MUC1-CD(1-45) (other)
chain: CQCRRKNYGQLDIFPARDTYHPMSEYPTYHTHGRYVPPSSTDRSP
modifications: not fully specified; cysteine pairing not given here; also: N-terminal GST fusion (pGEX-4T), sequence not given here
notes: Deletion mutant of MUC1-CD on glutathione beads; it lacks Y-46; not shown: glutathione S-transferase (GST) tag encoded by the pGEX-4T vector
binding result [7]: no binding

Now from value to molecule, other results behind:

c-Src activation as determined by autophosphorylation (c-Src; HRG 20 ng/ml 10 minutes): activated c-Src
Molecule: heregulin [HRG]
binding of MUC1-CD to HSP90 on HRG stimulation ([1]; HCT116/MUC1-CD (Flag-MUC1-CD) cells, HRG 10 minutes): stimulated binding of MUC1-CD to HSP90
binding of MUC1 and HSP90 on HRG stimulation ([1]; HCT116/MUC1 cells, HRG 20 ng/ml 10 minutes): increase in binding of MUC1 and HSP90
binding of endogenous MUC1 and HSP90 on HRG stimulation ([1]; MCF-7 breast cancer cells, HRG 10 minutes): increased binding of MUC1 and HSP90
binding of endogenous MUC1 and HSP90 on HRG stimulation ([1]; ZR-75-1 breast cancer cells, HRG 10 minutes): increased binding of MUC1 and HSP90
binding of cytosolic MUC1-C and HSP90 ([1]; cytosolic fraction of HCT116/MUC1 cells, HRG 10 minutes, anti-HSP90 precipitates): increases binding of cytosolic MUC1-C and HSP90
binding of MUC1 and HSP90 at the cell membrane ([1]; purified cell membranes of HCT116/MUC1 cells, HRG 10 minutes): stimulates binding of MUC1 and HSP90 at the cell membrane
binding of MUC1-CD to HSP70 on HRG stimulation ([6]; HCT116/MUC1-CD (Flag-MUC1-CD) cells): little effect on binding of MUC1-CD to HSP70
binding of endogenous MUC1 and HSP70 on HRG stimulation ([6]; MCF-7 breast cancer cells): little if any effect on this interaction
binding of endogenous MUC1 and HSP70 on HRG stimulation ([6]; ZR-75-1 breast cancer cells): no apparent effect on the constitutive interaction between MUC1 and HSP70
localization of MUC1-C to mitochondria on HRG stimulation ([2]; HRG 10 minutes): induces localization of MUC1-C, and not MUC1-N, to mitochondria
cytosolic MUC1-C levels (cytosolic MUC1-C levels): increase in cytosolic MUC1-C levels

binding to HSP90 after incubation with c-Src and ATP [4]: no detectable binding of HSP90
Molecule: MUC1-CD(1-45): GST fusion deletion mutant, amino acids 1-45 of the MUC1 cytoplasmic domain (CQCRRKNYGQLDIFPARDTYHPMSEYPTYHTHGRYVPPSSTDRSP; not fully specified; cysteine pairing not given here; also: fused to GST)
